Data from the NIST ThermoML archive (doi:10.1016/j.jct.2019.01.014).
Where “and” joins values, the source holds several entries; their conditions need not be identical. Identical values can stand only once.

Legend:
[1] = Crystal, Calculated from knudsen effusion weight loss
[2] = molar enthalpy of vaporization or sublimation; details: Crystal, Static calorimetry

S=C1CCCCCN1 [azepane-2-thione]
Details | molar enthalpy [kcal/mol] | vapor or sublimation pressure
[1], 318.18 K | – | 9.46e-05 kPa and 9.18e-05 kPa and 9.11e-05 kPa
[1], 320.16 K | – | 0.0001201 kPa and 0.0001211 kPa and 0.0001173 kPa
[1], 322.08 K | – | 0.0001485 kPa and 0.0001484 kPa and 0.0001469 kPa
[1], 324.2 K | – | 0.0001813 kPa and 0.0001821 kPa and 0.0001901 kPa
[1], 326.15 K | – | 0.0002346 kPa and 0.0002296 kPa and 0.0002407 kPa
[1], 328.08 K | – | 0.0002879 kPa and 0.0002891 kPa and 0.0002869 kPa
[1], 330.18 K | – | 0.0003569 kPa and 0.0003533 kPa and 0.0003704 kPa
[1], 332.12 K | – | 0.0004537 kPa and 0.0004424 kPa and 0.0004677 kPa
[1], 334.07 K | – | 0.0005566 kPa and 0.0005557 kPa and 0.0005502 kPa
[1], 336.18 K | – | 0.0006862 kPa and 0.0006759 kPa and 0.0007079 kPa
[1], 338.15 K | – | 0.000897 kPa and 0.0008658 kPa and 0.0008434 kPa
[1], 340.08 K | – | 0.001048 kPa and 0.001057 kPa and 0.001058 kPa
[2], 386.11 K | 23.5 | –

O=C1CCCCCN1 [1-aza-2-cycloheptanone]
Details | molar enthalpy [kcal/mol] | vapor or sublimation pressure
[1], 293.7 K | – | 0.0001506 kPa and 0.0001518 kPa and 0.0001508 kPa
[1], 295.7 K | – | 0.0001889 kPa and 0.000183 kPa and 0.000182 kPa
[1], 296.6 K | – | 0.0002196 kPa and 0.0002191 kPa and 0.0002211 kPa
[1], 298.19 K | – | 0.0002627 kPa and 0.0002587 kPa and 0.0002716 kPa
[1], 299.67 K | – | 0.0003254 kPa and 0.0003117 kPa and 0.0003173 kPa
[1], 301.1 K | – | 0.0003753 kPa and 0.0003757 kPa and 0.0003791 kPa
[1], 302.69 K | – | 0.0004428 kPa and 0.0004363 kPa and 0.0004403 kPa
[1], 304.15 K | – | 0.0005432 kPa and 0.0005228 kPa and 0.0005341 kPa
[1], 305.59 K | – | 0.0006305 kPa and 0.0006272 kPa and 0.0006374 kPa
[1], 307.18 K | – | 0.0007318 kPa and 0.0007265 kPa and 0.0007404 kPa
[1], 308.66 K | – | 0.0008828 kPa and 0.0009064 kPa and 0.0008695 kPa
[1], 310.1 K | – | 0.001048 kPa and 0.001045 kPa and 0.001038 kPa
[2], 350.03 K | 20.9 | –
